Results as given in patent US6100283A, “Benzimidazole compounds” (Newcastle University Ventures Limited, priority 1995, dated 2000).
Where “and” joins values, the source holds several entries; their conditions need not be identical. Equal values may be shown once. Read-outs that look alike come from different tables or passages of the source.

How the values were obtained:
[1] = molecular target: T1, PARP (Mus musculus, UniProt P11103); assay: PARP enzyme inhibition assay ([32P]-NAD+ incorporation into TCA-precipitated poly(ADP-ribose), oligonucleotide-activated, permeabilised L1210 cells); assay type: biochemical, murine (L1210 leukaemia cells); conditions: for IC50: permeabilised L1210 cells, 26° C., 5 minutes
T1 construct: endogenous in cells; host or cells: L1210 murine leukaemia cells, permeabilised by hypotonic buffer and cold shock
Text: The poly(ADP-ribose) which is then synthesised by the enzyme can be precipitated by tri-chloracetic acid (TCA) and the amount of radio-labelled ^32 p incorporated therein measured, e.g. using a scintillation counter, to give a measure of the activity of the PARP under the particular conditions of the experiment. By repeating the experiment following the same procedure, and under the same conditions, in the presence of each compound to be tested the reduction in enzyme activity, representative of the inhibitory effect of the test compound, can then be ascertained from the reduction, if any, of the amount of [^32 p] measured in the TCA precipitated poly(ADP-ribose).
Thus, with a range of different compounds a set of comparative values for inhibitory activity can be obtained.
In practice, L1210 murine leukaemia cells have been used as a source of the PARP enzyme after being rendered permeable to exogenous [^32 P]NAD by exposure to hypotonic buffer and cold shock. […] This oligonucleotide sequence snaps back on itself to form a double-stranded molecule with a single blunt end and provides an effective substrate for activation of PARP.
The experimental protocol adopted, in which a synthetic oligonucleotide as mentioned above is introduced as a specific activator of PARP, discriminates between PARP and other mono-ADP-ribosyltransferases in the cells.
The oligonucleotide having the palindromic sequence […], synthesised by conventional means, was vacuum dried and stored as pellets in a freezer. Before use, it was made up to 200 μg/ml in 10 mM Tris/HCl, pH 7.8, with each pellet being dissolved completely in […] of buffer. The solution was then heated to 60° C. in a water bath for 15 minutes, and allowed to cool slowly to ensure correct reannealing. After adding 9.5 ml of buffer, the concentration was checked by measuring the optical density of a diluted sample at 260 nm. The main solution was then diluted to a concentration of 200 μg/ml and stored in 500 μl aliquots in a freezer, ready for use.
The L1210 cells used as the source of the PARP enzyme were maintained as a suspension culture in RPMI medium+10% foetal bovine serum+glutamine and antibiotics (penicillin and streptomycin). HEPES and sodium bicarbonate were also added, and the cells were seeded in 100 ml-200 ml of medium such that there would be a concentration of approximately 8×10^5 /ml at the time of carrying out an assay.
The solubility of the compound was then checked by adding a quantity of the DMSO solution to a quantity of the isotonic buffer, in the required final proportions that were to be used in carrying out the assay, and after an interval the solution was examined under a microscope for any signs of crystals forming.
A desired quantity of the cells, ascertained by counting with a haemocytometer, was then centrifuged (1500 rpm in a "Europa" model 24M centrifuge for 5 minutes), the supernatant removed, and the pellets obtained were resuspended in 20 ml Ca^++ Mg^++ free phosphate buffered saline (Dulbeco's modification A, abbreviated Dul A) at 4° C. before centrifuging again at 1500 rpm and 4° C. After again removing the supernatant, the cells were resuspended at a concentration of 3×10^7 cells/ml in ice cold hypotonic buffer and left for 30 minutes on ice. Nine volumes were then added of ice cold isotonic buffer, and the cells, now rendered permeable to exogenous NAD^+, were then used within the next hour for carrying out an assay. The permeablisation of the cells may be checked at this stage by adding duplicate aliquots of cells to an equal volume of trypan blue, leaving for 5 minutes and then counting on a haemocytometer. Those rendered permeable will take up the Trypan blue and appear coloured.

[2] = tested on: L1210 murine leukaemia cells; assay: in vitro cytotoxicity assay (colony formation, L1210 cells, NU1064 with or without temozolomide); assay type: cell-based; conditions: for relative plating efficiency, NU1064 with temozolomide: 24 hours, normalised to temozolomide alone = 100%
Procedure: Again using cultures of the murine leukaemia L1210 cell line, growth inhibition experiments were carried out to assess the cytostatic effects of the compounds and clonogenic survival assays were performed to assess cytotoxicity, especially in relation to use of the compounds in conjunction with DNA damaging cytotoxic agents such as cytotoxic antitumour drugs or gamma irradiation. […] After 1 week colonies of viable cells were stained with MTT (1 ml 0.5 mg/ml) and counted.

[3] = read-out: IC50 value (PARP inhibition)

T1 sequence (P11103 whole entry): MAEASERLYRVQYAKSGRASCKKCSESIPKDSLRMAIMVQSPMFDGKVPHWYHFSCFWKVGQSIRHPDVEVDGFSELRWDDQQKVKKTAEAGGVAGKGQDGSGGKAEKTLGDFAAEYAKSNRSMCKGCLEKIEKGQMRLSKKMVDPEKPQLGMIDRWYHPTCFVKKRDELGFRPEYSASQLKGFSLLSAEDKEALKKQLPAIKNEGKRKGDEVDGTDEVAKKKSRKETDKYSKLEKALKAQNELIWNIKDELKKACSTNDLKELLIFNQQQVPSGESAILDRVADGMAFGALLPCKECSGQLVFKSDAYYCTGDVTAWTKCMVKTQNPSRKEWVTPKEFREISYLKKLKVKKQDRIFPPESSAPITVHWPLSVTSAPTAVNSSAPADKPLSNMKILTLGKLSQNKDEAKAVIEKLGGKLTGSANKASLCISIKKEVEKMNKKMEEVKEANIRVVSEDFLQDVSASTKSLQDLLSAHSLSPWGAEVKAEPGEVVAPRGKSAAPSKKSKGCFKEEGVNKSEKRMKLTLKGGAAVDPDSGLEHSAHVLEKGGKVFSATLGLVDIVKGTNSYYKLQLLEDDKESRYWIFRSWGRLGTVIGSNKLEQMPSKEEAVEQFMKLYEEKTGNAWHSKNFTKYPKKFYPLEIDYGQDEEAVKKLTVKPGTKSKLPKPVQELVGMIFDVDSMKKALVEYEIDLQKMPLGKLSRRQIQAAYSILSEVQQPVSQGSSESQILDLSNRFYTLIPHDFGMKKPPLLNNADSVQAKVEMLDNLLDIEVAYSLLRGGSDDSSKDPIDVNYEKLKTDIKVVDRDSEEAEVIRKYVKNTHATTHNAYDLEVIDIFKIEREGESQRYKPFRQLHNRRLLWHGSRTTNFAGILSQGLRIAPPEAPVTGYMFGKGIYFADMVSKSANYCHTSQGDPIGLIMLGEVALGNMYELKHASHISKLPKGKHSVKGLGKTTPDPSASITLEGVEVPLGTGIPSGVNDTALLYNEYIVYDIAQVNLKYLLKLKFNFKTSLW

Molecule	IC50 [1, 3] [nM]	further results
NC(=O)c1cccc(O)c1 [3-hydroxybenzamide, reference compound]	8000 ± 3500	
Cc1nc2c(C(N)=O)cccc2[nH]1 [NU1064, 2-methylbenzimidazole-4-carboxamide]	1090 ± 230	relative plating efficiency, NU1064 with temozolomide ([2]; 100 μM NU1064 + 100 μM temozolomide): 28%; relative plating efficiency, NU1064 with temozolomide ([2]; 200 μM NU1064 + 100 μM temozolomide): 2%; viability at 100 µM ([2]; Mus musculus, L1210, 100 μM NU1064, 24 hours, normalised to control = 100%, read-out: relative plating efficiency, NU1064 alone): 72%; viability at 200 µM ([2]; Mus musculus, L1210, 200 μM NU1064, 24 hours, normalised to control = 100%, read-out: relative plating efficiency, NU1064 alone): 54%; potentiation of temozolomide cytotoxicity (in words) ([2]; increasing concentrations of NU1064 + 100 μM temozolomide): very marked increase in temozolomide cytotoxicity
NC(=O)c1cccc2[nH]cnc12 [NU1066, benzimidazole-4-carboxamide]		IC50 ([1]; IC50 value (PARP inhibition)): 1260 nM and 1020 nM
O=C(O)c1cccc2nc[nH]c12 [NU1067, benzimidazole-4-carboxylic acid]		% Inhibition at 10 μM or IC50 value (result in words) ([1]; result in words in table): Inactive
NC(=O)c1cccc2nc(-c3ccc(O)cc3)[nH]c12 [NU1085, 2-(4'-Hydroxyphenyl)-1-H-benzimidazole-4-carboxamide]		IC50 ([1]; IC50 value (PARP inhibition)): 77 nM
NC(=O)c1cccc2[nH]c(C(F)(F)F)nc12 [NU1086, 2-trifluoromethylbenzimidazole-4-carboxamide]	1600	
COc1cccc(-c2nc3c(C(N)=O)cccc3[nH]2)c1 [NU1098, 2-(3'-Methoxyphenyl)-1-H-benzimidazole-4-carboxamide]	130	
COc1ccc(-c2nc3c(C(N)=O)cccc3n2C(=O)c2ccccc2)cc1 [NU1101, 2-(4'-Methoxyphenyl)-1-benzoylbenzimidazole-4-carboxamide]	270	
NC(=O)c1ccccc1 [benzamide, reference compound]	12400 ± 3100	
Cn1nnc2c(C(N)=O)ncn2c1=O [temozolomide, reference compound]		plating efficiency ([2]; 100 μM temozolomide alone, 24 hours (control 89%)): 32%
CGGAATTCCG: single strand oligonucleotide having the palindromic sequence CGGAATTCCG, activator of PARP (chemistry not given here) [reference compound]		activation of PARP by oligonucleotide (in words) [1]: potent activator of the enzyme

The remaining molecules from weak to strong by IC50 [1, 3], led by results:

IC50 [1, 3] [nM]	Molecule	further results
~100	COc1ccc(-c2nc3c(C(N)=O)cccc3n2C)cc1 [NU1090, 2-(4'-Methoxyphenyl)-1-methylbenzimidazole-4-carboxamide]	
91	NC(=O)c1cccc2nc(-c3ccc(N)cc3)[nH]c12 [NU1103, 2-(4'-aminophenyl)benzimidazole-4-carboxamide]	
76	NC(=O)c1cccc2[nH]c(-c3cccc(C(F)(F)F)c3)nc12 [NU1093, 2-(3'-Trifluoromethylphenyl)-1-H-benzimidazole-4-carboxamide]	
59	COc1ccc(-c2nc3c(C(N)=O)cccc3[nH]2)cc1 [NU1076, 2-(4'-methoxyphenyl)benzimidazole-4-carboxamide]	
33	N#Cc1ccc(-c2nc3c(C(N)=O)cccc3[nH]2)cc1 [NU1092, 2-(4'-Cyanophenyl)-1-H-benzimidazole-4-carboxamide]	PARP inhibitory activity (in words) [1]: exceptionally high inhibitory activities
22	NC(=O)c1cccc2[nH]c(-c3ccc([N+](=O)[O-])cc3)nc12 [NU1091, 2-(4'-Nitrophenyl)-1-H-benzimidazole-4-carboxamide]	PARP inhibitory activity (in words) [1]: exceptionally high inhibitory activities
